The record followed here is patent publication US20190322676A1, “CERAMIDE GALACTOSYLTRANSFERASE INHIBITORS FOR THE TREATMENT OF DISEASE” (BioMarin Pharmaceutical Inc., priority 2016, published 2019).

Where a name gives a salt, the structure may show the parent alone. Some results are limits rather than exact numbers.

This assay deals with T1, human CGT (ceramide galactosyltransferase), CHO/CGT lysate (Homo sapiens, UniProt Q16880).
T1 construct: Full-length human CGT cDNA was cloned into the BamH1/Xho1 site of pcDNA3.1 (+); expressed in transfected cells; host or cells: Chinese hamster ovary (CHO) cells; lysate prepared with M-PER
T1 sequence (Q16880 21-541): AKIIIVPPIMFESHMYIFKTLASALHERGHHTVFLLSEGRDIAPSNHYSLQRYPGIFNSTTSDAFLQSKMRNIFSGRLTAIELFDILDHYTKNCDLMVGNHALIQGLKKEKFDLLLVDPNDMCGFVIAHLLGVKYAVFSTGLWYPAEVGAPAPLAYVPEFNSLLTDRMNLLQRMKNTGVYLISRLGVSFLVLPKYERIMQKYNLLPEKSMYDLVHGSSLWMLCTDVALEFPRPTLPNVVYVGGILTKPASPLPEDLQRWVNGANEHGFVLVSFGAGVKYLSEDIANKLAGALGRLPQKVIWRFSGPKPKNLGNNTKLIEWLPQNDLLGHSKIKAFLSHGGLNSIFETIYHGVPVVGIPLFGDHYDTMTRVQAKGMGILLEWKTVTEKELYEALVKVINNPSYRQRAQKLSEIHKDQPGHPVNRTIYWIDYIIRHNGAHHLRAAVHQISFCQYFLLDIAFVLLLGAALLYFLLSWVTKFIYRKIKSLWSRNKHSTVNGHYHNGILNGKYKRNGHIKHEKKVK
Nature of the assay: CGT enzyme assay, RapidFire/MS/MS readout (Table 1 ranges with one asterisk *). Particulars: RapidFire method (range with one asterisk *). In kind it is biochemical. An outline of the steps: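 IC50s come from variable-slope dose-response fits of internal-standard-normalized C6-NBD-dihydro-galactosylceramide, measured by RapidFire/MS/MS (ESI negative). Reactions: 1 h, 37 °C, human CGT-expressing CHO lysate (4 μg), 0.001–50 μM compound, 10 μM NBD-dihydro-ceramide, 17.5 μM UDP-galactose, 0.5% DMSO, pH 7.2; 0.01% Tween 80 added for ** values.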
A word on the IC50: it is the concentration that gives 50% inhibition. `COc1cc(C(F)(F)[C@H](NS(=O)(=O)c2ccc(OCC3CCCCC3)cc2)C(=O)N2CCC(N)CC2)ccc1Cl` [Compound 129-1, (R)—N-(3-(4-aminopiperidin-1-yl)-1-(4-chloro-3-methoxyphenyl)-1,1-difluoro-3-oxopropan-2-yl)-4-(cyclohexylmethoxy)benzenesulfonamide] gave an IC50 of 1 to 10 µM.

`COc1cc(C(F)(F)[C@@H](NS(=O)(=O)c2ccc(OCC3CCCCC3)cc2)C(=O)N2CCC(N)CC2)ccc1Cl` [Compound 129-2, (S)—N-(3-(4-aminopiperidin-1-yl)-1-(4-chloro-3-methoxyphenyl)-1,1-difluoro-3-oxopropan-2-yl)-4-(cyclohexylmethoxy)benzenesulfonamide] displayed an IC50 of 10 to 30 µM.

As to `NC1CC2CCC(C1)N2C(=O)[C@@H](NS(=O)(=O)c1ccc2cc(OC3CCCC3)ccc2c1)C(F)(F)c1ccc(Cl)s1` (stereo partly drawn) [Compound 130-1, N-((2R)-3-(3-amino-8-azabicyclo[3.2.1]octan-8-yl)-1-(5-chlorothiophen-2-yl)-1,1-difluoro-3-oxopropan-2-yl)-6-(cyclopentyloxy)naphthalene-2-sulfonamide], the IC50 lay in the range of 1 to 10 µM.

`NC1CC2CCC(C1)N2C(=O)[C@H](NS(=O)(=O)c1ccc2cc(OC3CCCC3)ccc2c1)C(F)(F)c1ccc(Cl)s1` (stereo partly drawn) [Compound 130-2, N-((2S)-3-(3-amino-8-azabicyclo[3.2.1]octan-8-yl)-1-(5-chlorothiophen-2-yl)-1,1-difluoro-3-oxopropan-2-yl)-6-(cyclopentyloxy)naphthalene-2-sulfonamide]: the IC50 lay in the range of 10 to 30 µM.

Consider `NC1CCN(C(=O)[C@@H](NS(=O)(=O)c2ccc3cc(OC4CCCC4)ccc3c2)C(F)(F)c2ccc(Cl)s2)CC1` [Compound 131-1, (R)—N-(3-(4-aminopiperidin-1-yl)-1-(5-chlorothiophen-2-yl)-1,1-difluoro-3-oxopropan-2-yl)-6-(cyclopentyloxy)naphthalene-2-sulfonamide], for which the half-inhibitory concentration (IC50) lay within 1 to 10 µM.

`NC1CCN(C(=O)[C@H](NS(=O)(=O)c2ccc3cc(OC4CCCC4)ccc3c2)C(F)(F)c2ccc(Cl)s2)CC1` [Compound 131-2, (S)—N-(3-(4-aminopiperidin-1-yl)-1-(5-chlorothiophen-2-yl)-1,1-difluoro-3-oxopropan-2-yl)-6-(cyclopentyloxy)naphthalene-2-sulfonamide] yielded an IC50 of 1 to 10 µM.

`N[C@H]1CCCN(C(=O)[C@@H](NS(=O)(=O)c2ccc3cc(OC4CCCC4)ccc3c2)C(F)(F)c2ccc(Br)cc2)C1` [Compound 132-1, N—((R)-3-((S)-3-aminopiperidin-1-yl)-1-(4-bromophenyl)-1,1-difluoro-3-oxopropan-2-yl)-6-(cyclopentyloxy)naphthalene-2-sulfonamide trifluoroacetate] yielded a half-inhibitory concentration (IC50) of 1 to 10 µM.

On to `N[C@H]1CCCN(C(=O)[C@H](NS(=O)(=O)c2ccc3cc(OC4CCCC4)ccc3c2)C(F)(F)c2ccc(Br)cc2)C1` [Compound 132-2, N—((S)-3-((S)-3-aminopiperidin-1-yl)-1-(4-bromophenyl)-1,1-difluoro-3-oxopropan-2-yl)-6-(cyclopentyloxy)naphthalene-2-sulfonamide trifluoroacetate], for which the IC50 was 10 to 30 µM.

In turn, `NC1CC2CCC(C1)N2C(=O)[C@@H](NC(=O)C(=O)c1ccc2cc(OC3CCCC3)ccc2c1)C(F)(F)c1ccc(-c2ccc(Cl)cc2)cc1` (stereo partly drawn) [Compound 133-1, N-((2R)-3-(3-amino-8-azabicyclo[3.2.1]octan-8-yl)-1-(4′-chloro-[1,1′-biphenyl]-4-yl)-1,1-difluoro-3-oxopropan-2-yl)-2-(6-(cyclopentyloxy)naphthalen-2-yl)-2-oxoacetamide trifluoroacetate] returned an IC50 of 1 to 10 µM.

Regarding `NC1CC2CCC(C1)N2C(=O)[C@H](NC(=O)C(=O)c1ccc2cc(OC3CCCC3)ccc2c1)C(F)(F)c1ccc(-c2ccc(Cl)cc2)cc1` (stereo partly drawn) [Compound 133-2, N-((2S)-3-(3-amino-8-azabicyclo[3.2.1]octan-8-yl)-1-(4′-chloro-[1,1′-biphenyl]-4-yl)-1,1-difluoro-3-oxopropan-2-yl)-2-(6-(cyclopentyloxy)naphthalen-2-yl)-2-oxoacetamide trifluoroacetate], the IC50 was 30 to 100 µM.

Take `NC1CCN(C(=O)[C@@H](NC(=O)C(=O)c2ccc(OCC3CCCCC3)cc2)C(F)(F)c2ccc(-c3ccc(Cl)cc3)cc2)CC1` [Compound 134-1, (R)—N-(3-(4-aminopiperidin-1-yl)-1-(4′-chloro-[1,1′-biphenyl]-4-yl)-1,1-difluoro-3-oxopropan-2-yl)-2-(4-(cyclohexylmethoxy)phenyl)-2-oxoacetamide trifluoroacetate]: the IC50 was 10 to 30 µM.

As to `NC1CCN(C(=O)[C@H](NC(=O)C(=O)c2ccc(OCC3CCCCC3)cc2)C(F)(F)c2ccc(-c3ccc(Cl)cc3)cc2)CC1` [Compound 134-2, (S)—N-(3-(4-aminopiperidin-1-yl)-1-(4′-chloro-[1,1′-biphenyl]-4-yl)-1,1-difluoro-3-oxopropan-2-yl)-2-(4-(cyclohexylmethoxy)phenyl)-2-oxoacetamide trifluoroacetate], the IC50 lay in the range of 30 to 100 µM.

In the case of `COc1cc(C(F)(F)[C@H](NS(=O)(=O)c2ccc3cc(OC4CCCC4)ccc3c2)C(=O)N2C3CCC2CC(N)C3)ccc1-c1ccc(Cl)cc1` (stereo partly drawn) [Compound 135-1, N-((2R)-3-(3-amino-8-azabicyclo[3.2.1]octan-8-yl)-1-(4′-chloro-2-methoxy-[1,1′-biphenyl]-4-yl)-1,1-difluoro-3-oxopropan-2-yl)-6-(cyclopentyloxy) naphthalene-2-sulfonamide trifluoroacetate], the IC50 is below 1 µM.

For the compound `COc1cc(C(F)(F)[C@@H](NS(=O)(=O)c2ccc3cc(OC4CCCC4)ccc3c2)C(=O)N2C3CCC2CC(N)C3)ccc1-c1ccc(Cl)cc1` (stereo partly drawn) [Compound 135-2, N-((2S)-3-(3-amino-8-azabicyclo[3.2.1]octan-8-yl)-1-(4′-chloro-2-methoxy-[1,1′-biphenyl]-4-yl)-1,1-difluoro-3-oxopropan-2-yl)-6-(cyclopentyloxy)naphthalene-2-sulfonamide trifluoroacetate], the IC50 lay within 1 to 10 µM.

The compound `NC1CC2CCC(C1)N2C(=O)[C@@H](NC(=O)[C@H](O)c1ccc2cc(OC3CCCC3)ccc2c1)C(F)(F)c1ccc(-c2ccc(Cl)cc2)cc1` (stereo partly drawn) [Compound 136-1, (2R)—N-((2R)-3-(3-amino-8-azabicyclo[3.2.1]octan-8-yl)-1-(4′-chloro-[1,1′-biphenyl]-4-yl)-1,1-difluoro-3-oxopropan-2-yl)-2-(6-(cyclopentyloxy)naphthalen-2-yl)-2-hydroxyacetamide trifluoroacetate] had an IC50 of 1 to 10 µM.

For the compound `NC1CC2CCC(C1)N2C(=O)[C@H](NC(=O)[C@@H](O)c1ccc2cc(OC3CCCC3)ccc2c1)C(F)(F)c1ccc(-c2ccc(Cl)cc2)cc1` (stereo partly drawn) [Compound 136-2, (2S)—N-((2S)-3-(3-amino-8-azabicyclo[3.2.1]octan-8-yl)-1-(4′-chloro-[1,1′-biphenyl]-4-yl)-1,1-difluoro-3-oxopropan-2-yl)-2-(6-(cyclopentyloxy)naphthalen-2-yl)-2-hydroxyacetamide trifluoroacetate], the IC50 was in the range of 30 to 100 µM.
